Experimental findings from patent publication US20240309018A1, “THIAZOLE-LACTAM-SPIROHETEROCYCLIC COMPOUNDS AND APPLICATIONS THEREOF” (D3 BIO (WUXI) CO., LTD, priority 2021, published 2024) are described below.

The structures appear in SMILES notation. ≈ marks a conversion by molar mass, not a printed value. Like-named read-outs stand apart in the source and are kept apart here.

One series has as its system canine plasma albumin. The series is described as follows: Plasma protein binding (ultracentrifugation), canine. Also: tested at 0.2 µM. The class given is in vitro ADME. The method, then:
(§1) The binding degree of the assay compound to human/mouse/rat/canine/monkey plasma albumin was studied.
(§2) • 1) Matrix preparation: on the day of the assay, plasma was thawed in cold water and centrifuged at 3220 rpm for 5 min to remove all clots. The pH of the resulting plasma was measured and adjusted to 7.4±0.1 using 1% phosphoric acid or IN sodium hydroxide as needed. • 2) Dilution procedure for the assay compound: the assay compound was dissolved in dimethyl sulfoxide (DMSO) to prepare stock solutions with concentrations of 10 mM and 2 mM, respectively. A 40 μM working solution was prepared by diluting 2 μL of stock solution (2 mM) with 98 μL of DMSO. A 400 μM working solution of the control compound was prepared by diluting 10 μL of stock solution with 240 μL of DMSO. The working solution of the compound (5 μL) was mixed well with a blank matrix (995 μL) at a ratio of 1:200 to prepare a loading matrix.
(§3) • a) An equal volume of 30 μL of loading matrix (n=2) was transferred to a sample collection plate to prepare a time 0 (TO) sample for residue determination. The sample was immediately matched with the corresponding blank buffer to a final volume of 60 μL, and the volume ratio of plasma to buffer in each well was 1:1. […] The mixture was centrifuged at 4000 rpm for 20 min and 100 μL of supernatant from each sample was analyzed by LC-MS/MS.

For another series, the system named is rat plasma albumin. Nature of the series: Plasma protein binding (ultracentrifugation), rat. Also: tested at 0.2 µM. In kind it is in vitro ADME. The method, then:
as §1, §2, §3

Another series deals with human plasma albumin. Nature of the series: Plasma protein binding (ultracentrifugation), human. Also: tested at 0.2 µM. The class given is in vitro ADME. The method, then:
as §1, §2, §3

Series [1] is described as follows: Solubility study (HPLC-UV, phosphate buffers). The following applies: 25 °C, aqueous buffer, kinetic from dmso stock, 25±2° C., 2% DMSO, theoretical maximum 200 μM. The class given is physicochemical. As for the experimental part:
The solubility of the compound was determined to evaluate the solubility property of the compound.
• 1) Buffer A (pH 2.0): 50 mM phosphate buffer, pH 2.0; Buffer B (pH 6.5): 50 mM phosphate buffer, pH 6.5: Buffer C (pH 7.4): 50 mM phosphate buffer, pH 7.4; • 2) Preparation of standard solution: • a) 50% acetonitrile solution and 50% buffer solution were mixed to obtain a diluent; • b) 10 mM (10 μL/compound) compound stock solution was added to the diluent (490 μL/compound) to obtain 200 μM detection standard solution; • c) The 200 μM UV detection standard solution was diluted with 10-fold and 200-fold volume of diluents to obtain 20 μM and 1 μM UV standard solutions, respectively; • d) UV standard solutions of 1 μM, 20 µM, and 200 μM were used as standard solutions for solubility assays.
• 1) The compound was dissolved in DMSO to prepare a 10 mM stock solution. […] The pH of the corresponding solubility solutions was 2.0, 6.5 and 7.4, respectively. The theoretical maximum concentration of the assay compound is 200 μM with 2% DMSO; • 3) The plate was shaken in a shaker at room temperature (25±2° C.) at 600 rpm for 24 hours; • 4) 200 μL of the solution was pipetted from the 96-well plate, filtered with suction by a vacuum suction filtration device, and transferred into a new 96-well plate as an assay sample; • 5) The compound concentration was determined using HPLC-UV.
• 6) Three UV standard solutions from low concentration to high concentration (1 μM, 20 μM, 200 μM) were injected into HPLC, and then the assay sample of the compound to be assayed was injected; • 7) The UV chromatographic peaks were integrated, and the solubility of the sample was calculated.

The nature of series [2]: In vivo PK study in cynomolgus monkeys. Further details: species or system cynomolgus monkey. The following applies: male cynomolgus monkeys. As for the experimental part: Male cynomolgus monkeys were used as assay animals. After a single administration, the plasma concentration of the compound was measured and the pharmacokinetic behavior was evaluated.
Five healthy adult male cynomolgus monkeys were selected, wherein 2 animals were in an intravenous injection group, and 3 animals were in an oral group. The vehicle in the intravenous injection group was 5% DMSO+95% (20% HP-β-CD). The compound to be assayed was mixed with an appropriate amount of vehicle for intravenous injection, and dissolved with stirring to prepare a clear solution of 0.4 mg/mL. The clear solution was filtered by a microporous membrane, and then ready for use. The vehicle in the oral group was 5% DMSO+95% (20% HP-β-CD). The compound to be assayed was mixed with the vehicle, and dissolved with stirring to prepare a solution of 0.3 mg/mL. Cynomolgus monkeys were administered 1 mg/kg intravenously or 3 mg/kg orally, and then whole blood was collected for a certain period. Plasma was prepared. The drug concentration was analyzed by LC-MS/MS method, and the pharmacokinetic parameters were calculated by Phoenix WinNonlin software (Pharsight, USA).

As to `Cc1cccc(CN2C(=O)c3nc(-c4nc(Nc5ccnn5C)ncc4C)sc3C23COC3)n1` [WX001], the “Plasma protein binding rate (unbound %)” value in the series on canine plasma albumin came out at 14.3%; with rat plasma albumin, 8.4%; with human plasma albumin it was 15.9%. Also, the solubility at 24 h came out at 200 µM (≈ 94.7 µg/mL) in series [1] (50 mM phosphate buffer pH 2.0, 24 hours, read-out: Solubility at pH = 2.0); 2.94 µM (≈ 1.4 µg/mL) in series [1] (50 mM phosphate buffer pH 6.5, 24 hours, read-out: Solubility at pH = 6.5); 2.64 µM (≈ 1.25 µg/mL) in series [1] (50 mM phosphate buffer pH 7.4, 24 hours, read-out: Solubility at pH = 7.4). Also, the clearance in series [2] (cynomolgus monkey, plasma, intravenous, 1 mg/kg intravenously or 3 mg/kg orally) is 0.966 L/h/kg. Moreover, the Vd in series [2] (cynomolgus monkey, plasma, intravenous, 1 mg/kg intravenously or 3 mg/kg orally, read-out: Vdss) is 1.98 L/kg. The half-life in series [2] (cynomolgus monkey, plasma, 1 mg/kg intravenously or 3 mg/kg orally) was 2.41 h. This compound registered a bioavailability in series [2] (cynomolgus monkey, plasma, 1 mg/kg intravenously, 3 mg/kg orally, oral bioavailability) of 50%. Moreover, the Cmax in series [2] (cynomolgus monkey, single dose, 1 mg/kg intravenously or 3 mg/kg orally, plasma) came to 0.921 µM. For the same compound, the “Oral DNAUC” value in series [2] (3 mg/kg orally, AUCPO/Dose) was 1152.35 nM · h/mpk.
